Data from PubChem BioAssay AID1845194 (Molecular Pharmacology Branch, DTP, NCI, 2023).

Tested on: 287954-098-R-J1 tumor spheroid viability
Test: Anticancer human tumor 287954-098-R-J1 patient-derived Ewing sarcoma cell line growth inhibition
Settings: spheroids with HUVEC and MSC; for IC50: curve of first compound; for viability, T/C: stronger effect = lower value
In short: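 Complex tumor spheroids combined malignant cells with endothelial cells and mesenchymal stem cells. DNA-damaging drugs and DNA repair inhibitors were tested alone and in combination, at half-log dilutions down from clinical Cmax (top 10 microM if Cmax unknown), 0.25% DMSO final.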
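Note: spheroids exposed to compound for 7 days before viability readout.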
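Throughout, for viability, T/C: luminescent signal taken as surrogate of viable cell content; 100% = DMSO vehicle control viability and lower means growth inhibition.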

Cc1sc2c(c1C)C(c1ccc(Cl)cc1)=NC(CC(=O)Nc1ccc(O)cc1)c1nnc(C)n1-2 (stereo not given) + COc1cc2c(cc1O)CCNC21CSC2c3c(OC(C)=O)c(C)c4c(c3C(COC1=O)N1C(O)C3Cc5cc(C)c(OC)c(O)c5C(C21)N3C)OCO4
IC50 (second compound 30 pM): 529 nM
IC50 (second compound 94.9 pM): 428 nM
IC50 (second compound 0.0003 µM): 77.3 nM
IC50 (second compound 0.000949 µM): < 9.49 nM
IC50 (second compound 0.003 µM): < 9.49 nM
viability, T/C (second compound 30 pM, first compound 0.00949 µM): 110%
viability, T/C (second compound 30 pM, first compound 0.03 µM): 120%
viability, T/C (second compound 30 pM, first compound 0.0949 µM): 111%
viability, T/C (second compound 30 pM, first compound 0.3 µM): 97.2%
viability, T/C (second compound 30 pM, first compound 0.949 µM): 1.47%
viability, T/C (second compound 30 pM, first compound 3 µM): 1.05%
viability, T/C (second compound 94.9 pM, first compound 0.00949 µM): 109%
viability, T/C (second compound 94.9 pM, first compound 0.03 µM): 117%
viability, T/C (second compound 94.9 pM, first compound 0.0949 µM): 112%
viability, T/C (second compound 94.9 pM, first compound 0.3 µM): 65.4%
viability, T/C (second compound 94.9 pM, first compound 0.949 µM): 14.5%
viability, T/C (second compound 94.9 pM, first compound 3 µM): 1.03%
viability, T/C (second compound 0.0003 µM, first compound 0.00949 µM): 105%
viability, T/C (second compound 0.0003 µM, first compound 0.03 µM): 93.7%
viability, T/C (second compound 0.0003 µM, first compound 0.0949 µM): 39%
viability, T/C (second compound 0.0003 µM, first compound 0.3 µM): 12.4%
viability, T/C (second compound 0.0003 µM, first compound 0.949 µM): 0.78%
viability, T/C (second compound 0.0003 µM, first compound 3 µM): 0.57%
viability, T/C (second compound 0.000949 µM, first compound 0.00949 µM): 0.33%
viability, T/C (second compound 0.000949 µM, first compound 0.03 µM): 0.34%
viability, T/C (second compound 0.000949 µM, first compound 0.0949 µM): 0.25%
viability, T/C (second compound 0.000949 µM, first compound 0.3 µM): 0.07%
viability, T/C (second compound 0.000949 µM, first compound 0.949 µM): 0.03%
viability, T/C (second compound 0.000949 µM, first compound 3 µM): 0.11%
viability, T/C (second compound 0.003 µM, first compound 0.00949 µM): 0.17%
viability, T/C (second compound 0.003 µM, first compound 0.03 µM): 0.16%
viability, T/C (second compound 0.003 µM, first compound 0.0949 µM): 0.1%
viability, T/C (second compound 0.003 µM, first compound 0.3 µM): 0.11%
viability, T/C (second compound 0.003 µM, first compound 0.949 µM): 0.11%
viability, T/C (second compound 0.003 µM, first compound 3 µM): 0.19%

Cc1cc(C)c(CNC(=O)c2cc(-c3ccc(CN4CCOCC4)cc3)cc3c2cnn3C2CCCC2)c(=O)[nH]1 + CC[C@@]1(O)C(=O)OCc2c1cc1n(c2=O)Cc2cc3c(CN(C)C)c(O)ccc3nc2-1
IC50 (second compound 0.003 µM): > 10000 nM
IC50 (second compound 0.00949 µM): > 10000 nM
IC50 (second compound 0.03 µM): < 31.6 nM
IC50 (second compound 0.0949 µM): < 31.6 nM
IC50 (second compound 0.3 µM): < 31.6 nM
viability, T/C (second compound 0.003 µM, first compound 0.0316 µM): 104%
viability, T/C (second compound 0.003 µM, first compound 0.1 µM): 106%
viability, T/C (second compound 0.003 µM, first compound 0.316 µM): 98.6%
viability, T/C (second compound 0.003 µM, first compound 1 µM): 96.5%
viability, T/C (second compound 0.003 µM, first compound 3.16 µM): 102%
viability, T/C (second compound 0.003 µM, first compound 10 µM): 119%
viability, T/C (second compound 0.00949 µM, first compound 0.0316 µM): 100%
viability, T/C (second compound 0.00949 µM, first compound 0.1 µM): 114%
viability, T/C (second compound 0.00949 µM, first compound 0.316 µM): 102%
viability, T/C (second compound 0.00949 µM, first compound 1 µM): 108%
viability, T/C (second compound 0.00949 µM, first compound 3.16 µM): 104%
viability, T/C (second compound 0.00949 µM, first compound 10 µM): 104%
viability, T/C (second compound 0.03 µM, first compound 0.0316 µM): 12.5%
viability, T/C (second compound 0.03 µM, first compound 0.1 µM): 42.9%
viability, T/C (second compound 0.03 µM, first compound 0.316 µM): 21.1%
viability, T/C (second compound 0.03 µM, first compound 1 µM): 36.1%
viability, T/C (second compound 0.03 µM, first compound 3.16 µM): 28.2%
viability, T/C (second compound 0.03 µM, first compound 10 µM): 18.9%
viability, T/C (second compound 0.0949 µM, first compound 0.0316 µM): 2.57%
viability, T/C (second compound 0.0949 µM, first compound 0.1 µM): 2.37%
viability, T/C (second compound 0.0949 µM, first compound 0.316 µM): 2.24%
viability, T/C (second compound 0.0949 µM, first compound 1 µM): 2.24%
viability, T/C (second compound 0.0949 µM, first compound 3.16 µM): 2.58%
viability, T/C (second compound 0.0949 µM, first compound 10 µM): 2.04%
viability, T/C (second compound 0.3 µM, first compound 0.0316 µM): 2.22%
viability, T/C (second compound 0.3 µM, first compound 0.1 µM): 2.08%
viability, T/C (second compound 0.3 µM, first compound 0.316 µM): 2.15%
viability, T/C (second compound 0.3 µM, first compound 1 µM): 2.38%
viability, T/C (second compound 0.3 µM, first compound 3.16 µM): 2.39%
viability, T/C (second compound 0.3 µM, first compound 10 µM): 1.61%
